Patent US12358867B1, “Peptoid-based inhibitors of the protein arginine methyltransferase (PRMT) family” (University of North Florida Board of Trustees, priority 2020, dated 2025)
Read-outs that look alike come from different tables or passages of the source. Blank lines part the entries; values can stand above or below the compound they belong to. Starred links: 1 amine or outer side, 2 acyl side, 3 side chain; linkers in the order of their positions; H or OH if unused. Non-standard residues stand in square brackets, D forms with d. Residues, ends and D or L forms follow the SMILES beside them. Gly(N-(CH2)3-guanidino) = N=C(N)NCCCNCC(=O)O; X1 = N=C(CCl)NCCCN(CC(=O)[*:2])[*:1]; Gly(N-CH2CH2OH) = O=C(O)CNCCO; Nleu = CC(C)CNCC(=O)O; Nlys = NCCCCNCC(=O)O; Sar = CNCC(=O)O

What was measured:
PRMT1 [1] = biological target: T1, PRMT1 (Homo sapiens, UniProt Q99873); assay: IC50 assay, MTase-Glo Methyltransferase assay; format: biochemical
T1 construct: made in house
T1 sequence (Q99873 1-353 isoform Q99873-3, species assumed): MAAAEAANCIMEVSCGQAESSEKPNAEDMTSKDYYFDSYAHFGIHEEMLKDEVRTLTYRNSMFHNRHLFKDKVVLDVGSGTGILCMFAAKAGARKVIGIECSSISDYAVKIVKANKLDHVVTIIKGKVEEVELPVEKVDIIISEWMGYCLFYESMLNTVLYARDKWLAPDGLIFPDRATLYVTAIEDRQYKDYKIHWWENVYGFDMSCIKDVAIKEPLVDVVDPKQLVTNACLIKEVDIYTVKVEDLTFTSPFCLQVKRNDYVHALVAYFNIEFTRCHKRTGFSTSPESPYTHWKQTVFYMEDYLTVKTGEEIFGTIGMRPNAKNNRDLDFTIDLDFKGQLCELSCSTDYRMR
Protocol: The efficacy of the peptoid inhibitors was probed using the MTase-Glo Methyltransferase assay kit. Various concentrations (0-1000 μM) of peptoid was incubated in assay buffer (20 mM Tris-HCl pH 8.0, 50 mM NaCl, 1 mM EDTA, 3 mM MgCl2, 0.1 mg/ml BSA, 1 mM DTT) at 37° C. for 10 min. Afterward, the inhibitor was allowed to interact with 200 nM PRMT1 for 15 min at 37° C. The reaction was catalyzed with 225 μM of AcH4-21 (a PRMT1 peptide substrate), continued for 15 min at 37° C., was quenched with the addition of 0.5% TFA (0.1% final concentration, 10 min, r.t.), followed by the addition of MTase-Glo Reagent to a final concentration of 1×. After 30-min incubation at r.t., MTase-Glo Detection Solution was added and incubated for 30 min at r.t. Luminescence signal was converted to product concentration using SAH standards (0-5 μM), following the above assay. Immediately afterwards, the luminescence signal was read with a BioTek Synergy 2 Multi-Mode Microplate Reader. IC50 values were determined by fitting the data to equation (2) using GraFit version 7.03. Fractional activity of PRMT=1/(1+([I]/IC50)) (2) where [I] is the inhibitor concentration and IC50 is the concentration of inhibitor resulting in 50% PRMT activity.
The IC50 value for the peptoid inhibitors were measured using the MTase-Glo Methyltransferase assay kit (Promega). The peptoid was incubated in assay buffer (20 mM Tris-HCl pH 8.0, 50 mM NaCl, 1 mM EDTA, 3 mM MgCl2, 0.1 mg/mL BSA, 1 mM DTT) and substrate (0-1000 μM) at either 37° C. (PRMT1) or 25° C. (PRMT5). After a pre-incubation of 10 minutes, 200 nM PRMT1 or PRMT5 was added to the assay before adding in the substrate, AcH4-21, at 225 μM. The reaction proceeded for 15 minutes before being quenched with 0.5% TFA (0.1% final concentration), vortexed, and incubated for an additional 10 minutes. To detect product formation, the MTase-Glo Reagent was added for 30 minutes at r.t., followed by addition of the MTase-Glo Detection solution for an additional 30 minutes. Finally, the luminescence signal was measured using a BioTek Synergy 2 Multi-Mode Microplate Reader. The values were converted to product concentration using a standard curve of S-adenosylhomocysteine (SAH; 0-5 μM). The IC50 values were determined using equation 1 and fit to a curve using GraFit 7.03. Fractional activity of PRMT=1/(1+([I]/IC50)) (2) IC50 is the concentration of inhibitor resulting in 50% PRMT activity and [I] is the inhibitor concentration. Cell Culture and Conditions

PRMT1 [2] = biological target: T1, PRMT1; assay: Km assay, MTase-Glo Methyltransferase assay (peptoid as substrate); format: biochemical; details: peptoid 0-1000 μM, 200 nM PRMT1
Protocol: The kinetics of each peptoid were determined using the MTase-Glo Methyltransferase assay kit to monitor the conversion of S-adenosylmethionine (SAM) to S-adenosylhomocysteine (SAH). Briefly, various concentrations (0-1000 μM) of the peptoid in assay buffer (20 mM Tris-HCl pH 8.0, 50 mM NaCl, 1 mM EDTA, 3 mM MgCl2, 0.1 mg/ml BSA, 1 mM DTT) were incubated at 37° C. After 10 min, 200 nM PRMT1 was added to initiate the reaction. The reaction proceeded for 10 min at 37° C. until quenched with the addition of 0.5% TFA (0.1% final concentration, 10 min, r.t.) followed by the addition of MTase-Glo Reagent to a final concentration of 1×. After 30 min incubating at r.t, MTase-Glo Detection Solution was added and incubated for 30 min at r.t. Immediately afterwards, the luminescence signal was read with a BioTek Synergy 2 Multi-Mode Microplate Reader. Luminescence signal was converted to product concentration using SAH standards (0-5 μM), following the above assay. The initial rates were fitted into equation (1) using GraFit version 7.03. V=Vmax[S]/(Km+[S]) (1) IC50 Assay

[3] = tested on: HepaRG immortalized, terminally differentiated liver cells; details: non-tumorigenic HepaRG; for growth over time course: 72 hour time course
Protocol: (§1) MDA-MB-468 breast carcinoma cells (ATCC; HTB132), HCT116+/+p53 colon carcinoma cells were grown in DMEM supplemented in 5% FBS. HepaRG terminally differentiated liver cell line (Thermoscientific; HPRGC10) and HepaRG-Fucci cells were grown in Williams media supplemented with Glutamax and 5% FBS and normal Human Mammary Epithelial Cells (HMEC) (ATCC; PCS-600-010) were grown in Mammary epithelial basal medium (ATCC; PCS-600-030) supplemented with mammary epithelial cell growth kit (ATCC; PCS-600-040). Cells were recovered with 0.25% trypsin-EDTA, plated on cell culture treated plates and/or coverslips according to the experimental design and incubated overnight in 37° C. humidified CO2 incubator kept at 5% CO2 (800WJ; Thermoscientific). Cells were washed twice with sterile PBS before switching to serum free treatment media along with varying concentrations of the PRMT inhibitor compound (0-40 μM).
(§2) Cell viability and growth was assessed using the crystal violet assay as described by Oliver et al., J Cell Sci, 1989). […] Cells were fixed at each time point with 100% methanol and stained with 1% crystal violet in 0.01M borate buffer (pH 8.9). Absorbance of dye eluted in 1:1 (v/v) ethanol: 0.01M HCl was checked at 650 nm by microplate reader. The cell growth rate was calculated by the following formula: Cell growth rate (%)=(A650 at n hour/A650 0 h). Each condition was tested in triplicate and repeated three independent times.

[4] = tested on: Human Mammary Epithelial Cells (HMEC); details: normal HMEC, 72 hour time course
Protocol: as §1, §2

[5] = tested on: caspase-3 activity in HepaRG cells; details: only at the highest dose
Protocol: Caspase-3 activity assay was performed on extracted protein lysates using colorimetric caspase-3 activity assay (K106; Biovision) as per manufacturer's protocol. Briefly, 50 μL of extracted protein was plated in a UV compatible 96 well plate. DEVD-pNA substrate in prepared 1× buffer was added to each sample. The plate was shaken for 10 minutes and incubated at 37° C. in Biorad plate reader and read at 405 nm every 10 minutes for 2 hours.

[6] = histone H4 peptoids, SAM 40 μM, substrate AcH4-21 225 μM, read-out: IC50
[7] = listed as unacetylated H4-16 warhead chloracetamidine peptoid

- IC50 (PRMT1 [1]; [6]): > 1 mM
- modification / product turnover as PRMT1 substrate (PRMT1 [2]): low product turnover
Compound: CC(=O)N(CCO)CC(=O)NCC(=O)N(CCCNC(=N)N)CC(=O)NCC(=O)N(CCCCN)CC(=O)NCC(=O)NCC(=O)N(CCCCN)CC(N)=O [AcH4-8] (Ac-[Gly(N-CH2CH2OH)]G[Gly(N-(CH2)3-guanidino)]G[Nlys]GG[Nlys]-NH2)

Compound: CC(=O)N(CCO)CC(=O)NCC(=O)N(CCCNC(=N)N)CC(=O)NCC(=O)N(CCCCN)CC(=O)NCC(=O)NCC(=O)N(CCCCN)CC(=O)NCC(=O)N(CC(=O)NCC(=O)N(CCCCN)CC(=O)NCC(N)=O)CC(C)C [AcH4-13] (Ac-[Gly(N-CH2CH2OH)]G[Gly(N-(CH2)3-guanidino)]G[Nlys]GG[Nlys]G[Nleu]G[Nlys]G-NH2)
- IC50 (PRMT1 [1]): > 1 mM
- modification / product turnover as PRMT1 substrate (PRMT1 [2]): low product turnover

Compound: CC(=O)N(CCO)CC(=O)NCC(=O)N(CCCNC(=N)N)CC(=O)NCC(=O)N(CCCCN)CC(=O)NCC(=O)NCC(=O)N(CCCCN)CC(=O)NCC(=O)N(CC(=O)NCC(=O)N(CCCCN)CC(=O)NCC(=O)NCC(=O)N(C)CC(=O)N(CCCCN)CC(N)=O)CC(C)C [AcH4-16 peptoid] (Ac-[Gly(N-CH2CH2OH)]G[Gly(N-(CH2)3-guanidino)]G[Nlys]GG[Nlys]G[Nleu]G[Nlys]GG[Sar][Nlys]-NH2)
- IC50 (PRMT1 [1]): 0.916 ± 0.0195 mM

- IC50 (PRMT1 [1]; [6]): > 1 mM
Compound: N=C(N)NCCCN(CC(=O)NCC(=O)N(CCCCN)CC(=O)NCC(=O)NCC(=O)N(CCCCN)CC(N)=O)C(=O)CNC(=O)CNCCO [Peptoid H4-8] (H-[Gly(N-CH2CH2OH)]G[Gly(N-(CH2)3-guanidino)]G[Nlys]GG[Nlys]-NH2)
- inhibition of PRMT1 (PRMT1 [1]; up to 1000 μM): did not show any inhibition up to 1000 μM

Compound: CC(C)CN(CC(=O)NCC(=O)N(CCCCN)CC(=O)NCC(=O)NCC(=O)N(C)CC(=O)N(CCCCN)CC(N)=O)C(=O)CNC(=O)CN(CCCCN)C(=O)CNC(=O)CNC(=O)CN(CCCCN)C(=O)CNC(=O)CN(CCCNC(=N)CCl)C(=O)CNC(=O)CNCCO [Peptoid P2] (H-[Gly(N-CH2CH2OH)]G[X1]G[Nlys]GG[Nlys]G[Nleu]G[Nlys]GG[Sar][Nlys]-NH2)
- cell viability ([3]; 0-40 μM, 48 hours): no prominent change
- growth over time course [3]: no detectable effect in growth
- growth over time course [3, 7]: No detectable effect in growth
- growth over time course [4]: no detectable effect in growth
- growth over time course [4, 7]: No detectable effect in growth
- caspase-3 activity [5]: minimal activation of caspase-3
- caspase-3 activity [5, 7]: Only minimal activation of caspase-3
